Experimental data as given in publication PMC3726482 (PLoS ONE, 2013).

Columns and labels:
Type in all cases: biochemical
CyaA-N [1] = target: T1, CyaA-N (Bordetella pertussis, UniProt P0DKX7); conditions: read-out: CyaA-N / KM
T1 construct: gene cya; catalytic domain, amino acids 1 to 373; plasmid pExCyaA-N; purified from E. coli; assayed with calf brain calmodulin; with Calmodulin

EF (edema factor) = target: T2, EF (edema factor) (Bacillus anthracis, UniProt P40136); conditions: read-out: EF / KM
T2 construct: gene cya

CyaA-N [2] = target: T1, CyaA-N

T2 sequence (P40136 whole entry, looked up): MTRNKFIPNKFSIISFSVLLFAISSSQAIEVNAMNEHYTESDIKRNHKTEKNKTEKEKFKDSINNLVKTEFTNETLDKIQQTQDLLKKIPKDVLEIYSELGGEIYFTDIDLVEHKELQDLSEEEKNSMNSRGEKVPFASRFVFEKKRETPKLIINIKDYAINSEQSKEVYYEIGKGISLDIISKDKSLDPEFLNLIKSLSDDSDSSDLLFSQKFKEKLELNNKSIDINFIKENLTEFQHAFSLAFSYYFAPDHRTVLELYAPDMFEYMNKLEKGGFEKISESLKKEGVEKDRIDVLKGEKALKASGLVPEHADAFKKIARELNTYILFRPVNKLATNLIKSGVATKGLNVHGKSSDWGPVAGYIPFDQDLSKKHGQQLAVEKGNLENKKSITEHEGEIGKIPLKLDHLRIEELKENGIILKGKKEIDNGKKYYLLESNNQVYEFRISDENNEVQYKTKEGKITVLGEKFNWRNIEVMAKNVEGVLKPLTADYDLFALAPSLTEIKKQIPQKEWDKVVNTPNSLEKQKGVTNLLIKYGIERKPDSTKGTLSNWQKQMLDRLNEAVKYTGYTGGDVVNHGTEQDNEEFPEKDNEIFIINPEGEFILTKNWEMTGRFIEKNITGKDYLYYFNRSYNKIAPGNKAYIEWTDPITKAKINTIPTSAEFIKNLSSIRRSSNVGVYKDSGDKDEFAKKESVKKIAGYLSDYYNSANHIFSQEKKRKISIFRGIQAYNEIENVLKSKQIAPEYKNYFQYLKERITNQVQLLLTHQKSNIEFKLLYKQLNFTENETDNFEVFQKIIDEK
T1 sequence (P0DKX7 whole entry, looked up, the tested form may be a part): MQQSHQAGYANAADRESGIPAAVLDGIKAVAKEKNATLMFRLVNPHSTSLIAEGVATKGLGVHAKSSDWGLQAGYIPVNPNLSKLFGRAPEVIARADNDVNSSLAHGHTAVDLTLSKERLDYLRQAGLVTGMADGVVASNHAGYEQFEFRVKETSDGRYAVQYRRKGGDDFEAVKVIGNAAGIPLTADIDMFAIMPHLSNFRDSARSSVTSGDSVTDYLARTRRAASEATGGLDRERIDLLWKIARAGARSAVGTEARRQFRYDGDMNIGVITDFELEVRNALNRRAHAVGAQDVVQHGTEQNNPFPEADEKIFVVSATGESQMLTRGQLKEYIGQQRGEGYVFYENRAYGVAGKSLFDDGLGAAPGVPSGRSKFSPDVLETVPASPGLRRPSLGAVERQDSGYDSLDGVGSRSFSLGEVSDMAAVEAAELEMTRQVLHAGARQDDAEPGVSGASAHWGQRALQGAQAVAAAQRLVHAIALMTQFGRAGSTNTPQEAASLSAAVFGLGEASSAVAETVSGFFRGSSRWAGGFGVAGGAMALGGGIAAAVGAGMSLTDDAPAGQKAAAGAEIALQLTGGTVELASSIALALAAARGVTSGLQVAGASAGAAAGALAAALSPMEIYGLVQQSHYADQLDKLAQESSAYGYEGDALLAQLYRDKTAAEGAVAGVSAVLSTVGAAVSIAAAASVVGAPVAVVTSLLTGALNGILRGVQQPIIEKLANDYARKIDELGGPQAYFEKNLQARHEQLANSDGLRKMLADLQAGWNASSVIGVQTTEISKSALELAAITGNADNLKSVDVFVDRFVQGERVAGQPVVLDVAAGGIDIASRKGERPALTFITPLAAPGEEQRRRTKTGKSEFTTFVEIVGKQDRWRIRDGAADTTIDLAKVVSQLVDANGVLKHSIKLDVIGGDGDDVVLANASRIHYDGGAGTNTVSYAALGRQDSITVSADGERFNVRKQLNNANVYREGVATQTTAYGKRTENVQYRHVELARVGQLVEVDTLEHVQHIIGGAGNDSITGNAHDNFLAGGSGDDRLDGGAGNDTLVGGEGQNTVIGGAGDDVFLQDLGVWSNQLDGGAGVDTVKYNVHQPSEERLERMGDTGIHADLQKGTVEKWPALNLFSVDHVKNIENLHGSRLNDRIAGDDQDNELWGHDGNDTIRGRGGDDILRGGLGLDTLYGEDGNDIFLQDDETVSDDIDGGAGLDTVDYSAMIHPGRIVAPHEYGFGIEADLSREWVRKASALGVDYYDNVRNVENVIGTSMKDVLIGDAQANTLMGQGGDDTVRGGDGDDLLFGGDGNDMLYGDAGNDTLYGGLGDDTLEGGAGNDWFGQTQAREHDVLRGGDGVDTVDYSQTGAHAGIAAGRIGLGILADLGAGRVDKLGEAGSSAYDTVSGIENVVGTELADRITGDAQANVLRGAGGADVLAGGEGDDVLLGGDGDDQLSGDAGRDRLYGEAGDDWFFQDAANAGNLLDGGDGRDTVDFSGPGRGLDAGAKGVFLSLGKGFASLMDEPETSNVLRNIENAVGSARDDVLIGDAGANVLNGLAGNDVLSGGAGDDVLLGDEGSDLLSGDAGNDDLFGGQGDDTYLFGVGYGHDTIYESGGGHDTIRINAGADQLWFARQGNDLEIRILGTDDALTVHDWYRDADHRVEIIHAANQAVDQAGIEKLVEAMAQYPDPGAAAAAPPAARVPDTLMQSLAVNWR

Structure (SMILES)	Km (CyaA-N [1]) [µM]	Km (EF (edema factor)) [µM]	CyaA-N / KM (CyaA-N [2]) [µM]
Nc1ncnc2c1ncn2[C@@H]1O[C@H](COP(=O)(O)OP(=O)(O)OP(=O)(O)O)[C@@H](O)[C@H]1O [ATP]	171 ± 22.8	78.1 ± 8.7	–
Nc1ccn([C@@H]2O[C@H](COP(=O)(O)OP(=O)(O)OP(=O)(O)O)[C@@H](O)[C@H]2O)c(=O)n1 [CTP]	475 ± 139	367 ± 116	–
Nc1nc2c(ncn2[C@@H]2O[C@H](COP(=O)(O)OP(=O)(O)OP(=O)(O)O)[C@@H](O)[C@H]2O)c(=O)[nH]1 [GTP]	191 ± 25	85 ± 13	–
O=P(O)(O)OP(=O)(O)OP(=O)(O)OC[C@H]1O[C@@H](n2cnc3c(O)ncnc32)[C@H](O)[C@@H]1O [ITP]	329 ± 44	507 ± 108	–
Cc1cn([C@H]2C[C@H](O)[C@@H](COP(=O)(O)OP(=O)(O)OP(=O)(O)O)O2)c(=O)[nH]c1=O [TTP]	19 ± 5	–	1332 ± 365
O=c1ccn([C@@H]2O[C@H](COP(=O)(O)OP(=O)(O)OP(=O)(O)O)[C@@H](O)[C@H]2O)c(=O)[nH]1 [UTP]	599 ± 59	792 ± 299	–
O=c1[nH]c(=O)c2ncn([C@@H]3O[C@H](COP(=O)(O)OP(=O)(O)OP(=O)(O)O)[C@@H](O)[C@H]3O)c2[nH]1 [XTP]	37 ± 7	–	309 ± 57
